Measured values reported in patent publication EP0263209A2, “Anthelmintic quinolinyl acylhydrazones” (THE UPJOHN COMPANY, priority 1986, dated 1988).
Read-outs that look alike come from different tables or passages of the source.

Columns and labels:
Assay type in all cases: in vivo
[1] = system: H. contortus; experiment: Sheep experimentally infected with Haemonchus contortus, percentage clearance (Procedure No. 1); conditions: single sheep per route
Method: In individual experiments all sheep are treated identically, however non-critical variations occur between experiments. All of the sheep used in this procedure are treated twice with levamisole hydrochloride orally at 8 mg/kg or once each with ivermectin parenterally at 200 µg/kg and levamisole hydrochloride orally at 8 mg/kg. The second treatment in each case is administered 4-7 days after the first treatment. Two weeks after the second treatment all sheep are inoculated per os with ∼3,500 to ∼7,500 infective larvae of H. contortus. Rectal fecal samples are taken from each sheep 26-41 days post-inoculation (P.I.), and these samples are examined for eggs of H. contortus using the McMaster counting chamber technique. […] One-three days later on days 27-42 PI each sheep remaining in the study (excluding the nontreated controls) is treated with a test compound (orally or parenterally at 100 mg/kg unless indicated otherwise) or a standard (levamisole hydrochloride orally at 8 mg/kg) or is used as an untreated control. All sheep received food and water ad lib. throughout the experiment. Prior to administration, all solid compounds are finely ground using a mortar and pestle. Oral compounds are suspended in 20-30 ml of sterile vehicle #98 (each ml contains: carboxymethylcellulose = 10 mg, polysorbate80 -4 mg, propylparaben - 0.42 mg) using a sonicator and administered along with a tap water wash via a stomach tube. The parenteral compounds are similarly suspended in 20-30 ml of the sterile vehicle and given by intraperitoneal injecting using a 13 gauge, 2 inch needle and a 50 ml syringe. All test compounds are given to a single sheep/route of administration. Two or more sheep are treated with levamisole hydrochloride and five are used as nontreated controls. All animals are monitored for signs of toxicity following treatment. The sheep are sacrificed 7-12 days after treatment (days 35-49 PI), and the abomasum is ligated and removed from each sheep. Each abomasum is longitudinally sectioned and rinsed into an 80 mesh sieve. Sieve contents are collected in individual containers and fixed in formol-alcohol. Later each sample is transferred to a 1000 or 2000 ml beaker and the volume brought to 400-1000 ml with tap water. The total number of worms in a 40-100 ml aliquot (10%) is determined. When no worms are found in the 10% aliquot, the entire sample is examined. Total worm number/sheep and percentage clearance for each treatment are calculated. Percentage clearance for a particular test compound in a given trial is determined according to the following formula: Percentage Clearance (Test Compound) = [(Mean number of worms recovered from nontreated control sheep - Number of worms recovered from treated sheep)/Mean number of worms recovered from nontreated control sheep] x 100. Sheep which die within 24 hr following treatment are not examined for worms, while any that die between 24 hr post-treatment and necropsy are examined in an identical manner as that described above. The results of various trials are combined and reported in Table I as percentage clearance.

[2] = system: Oesophagostomum; experiment: Sheep naturally infected with helminths, mean percentage clearance of adult worms (Procedure No. 2); conditions: Oral, 100 mg/kg, groups of five
Method: (§1) Parasitized sheep are randomly assigned to groups of five animals based on parasitic burden, sex, and farm origin. Sheep are double ear-tagged, weighed, housed in a barn in community pens, fed hay supplemented with 1/2 lb corn/head/day. Water is given ad lib. Animals are allowed to acclimate for one-two weeks prior to treatment.
(§2) Each group of sheep receives a test compound either orally or parenterally at a dosage rate of 100 mg/kg. A group of sheep is treated with 8 mg/kg of levamisole hydrochloride and another group serves as an untreated control group. Orally administered compounds are suspended in 20-30 ml of sterile vehicle #98 (each ml contains: carboxymethylcellulose - 10 mg, polysorbate80 -4 mg, propylparaben - 0.42 mg) using a sonicator and administered along with a tap water wash via a stomach tube. For parenteral administration, compounds are similarly suspended in 20-30 ml of the sterile vehicle and given by intraperitoneal injection using a 20 gauge, 1 inch needle and a 50 ml syringe. Following treatment, all animals are observed for signs of toxicity.
(§3) The number and classification of helminth eggs per gram of feces (e.p.g.) are determined for each sheep during the acclimation period and in some cases at necropsy. Egg counts are made using the McMaster counting chamber technique and rectal fecal samples. Animals dying during the 24 hours immediately following dosing are not subjected to necropsy. Sheep that die 1-6 days posttreatment are posted and complete worm counts performed. All remaining animals are sacrificed on days 7-8 posttreatment. Each sheep is euthanised and bled out prior to opening the abdominal cavity. Ligatures are placed at the reticuloomasal junction, the pyloric valve, and the ileo-cecal junction. The abomasum and small intestine are freed of fat and mesenteric attachments, longitudinally opened, and their contents placed in individual containers. The mucosal surface of each is washed with tap water, rubbed clean, and rinsed several times. Washings and ingesta for each organ are made up to 1 liter and a 10% aliquot in formalin is stored for later examination. The cecum, large intestine, and colon are freed of mesenteric attachments, each is longitudinally opened, and their contents washed, collected, and made up to 1 liter in 10% formalin. The entire sample is stored. All carcasses are incinerated.
(§4) Ten percent of the total contents collected from the abomasum and small intestine and the entire contents of the large intestine, cecum, and colon are examined under stereoscopic magnification (40X). All worms are identified to genus and in some instances species. Separate adult and larval counts are determined.
(§5) The mean percentage clearance against specific helminths in the test sheep is calculated by subtracting the mean number of helminths observed in the treated sheep at necropsy from the mean number observed in the nontreated controls at necropsy, dividing the remainder by the latter mean number and multiplying by 100. The mean percentage clearances against the various helminths identified in the test sheep are calculated.

[3] = system: Ostertagia; experiment: as above; conditions: Oral, 100 mg/kg, groups of five
Method: as §1, §2, §3, §4, §5

[4] = system: Trichostrongylus axei; experiment: as above; conditions: Oral, 100 mg/kg, groups of five
Method: as §1, §2, §3, §4, §5

[5] = system: Trichuris; experiment: as above; conditions: Oral, 100 mg/kg, groups of five
Method: as §1, §2, §3, §4, §5

[6] = system: Trichostrongylus colubriformis; experiment: as above; conditions: Oral, 100 mg/kg, groups of five
Method: as §1, §2, §3, §4, §5

[7] = system: Haemonchus; experiment: as above; conditions: Oral, 100 mg/kg, groups of five
Method: as §1, §2, §3, §4, §5

[8] = system: Nematodirus; experiment: as above; conditions: Oral, 100 mg/kg, groups of five
Method: as §1, §2, §3, §4, §5

[9] = ip, intraperitoneal administration, read-out: H. contortus %Clearance I.P.
[10] = oral administration, read-out: H. contortus %Clearance P.O.

Structure (SMILES) | inhibition in vivo at 100 mg/kg [1, 9] | inhibition in vivo at 100 mg/kg [1, 10] | further results
Cc1cccc(C(=O)NN=Cc2ccc3ccccc3n2)c1 [Compound 4, 3-methylbenzoic acid (2-quinolinylmethyl-ene)hydrazide] | 29.8% | 53.3% | 
CCOC(=O)NN=Cc1ccnc2ccccc12 [Compound 6, ethyl (4-quinolinylmethylene)carbazate] | 61.2% | 82.9% | Percentage Clearance of Adult Worms Oes. [2]: 33.3%; Percentage Clearance of Adult Worms Ost. [3]: 79.4%; Percentage Clearance of Adult Worms T.a. [4]: 0%; Percentage Clearance of Adult Worms Trich. [5]: 11.1%; Percentage Clearance of Adult Worms T.c. [6]: 61.4%; Percentage Clearance of Adult Worms H. [7]: 94.1%; Percentage Clearance of Adult Worms N. [8]: 45.2%
O=C(NN=Cc1ccc2ccccc2n1)c1ccccc1 [Compound 8, benozic acid (2-quinolinylmethylene) hydrazide] |  | 33% | 
O=C(NN=Cc1ccc2ccccc2n1)c1cccnc1 [Compound 9] |  | 76.8% | 
O=C(NN=Cc1ccnc2ccccc12)c1ccccc1 [Compound 11] |  | 96.8% | 
NC(=O)NCC(=O)NN=Cc1ccc2ccccc2n1 [Compound 12] |  | 32.9% | 
CCOc1ccc(C(=O)NN=Cc2ccc3ccccc3n2)cc1 [Compound 14] | 0% | 36.8% | 
Cc1ccccc1C(=O)NN=Cc1ccc2ccccc2n1 [Compound 15] | 0% | 32% | 
O=C(NN=Cc1ccnc2ccccc12)c1cccs1 [Compound 16] | 80.1% | 25.2% | 
O=C(NN=Cc1ccc2ccccc2n1)c1cccc(O)c1 [Compound 20] | 20.3% | 0% | 
COc1ccc(C(=O)NN=Cc2ccc3ccccc3n2)cc1 [Compound 22, 4-methoxybenzoic acid (2-quinolinylmethylene)hydrazide] | 14.3% | 0% | 
O=C(NN=Cc1ccc2ccccc2n1)c1cccc([N+](=O)[O-])c1 [Compound 23, 3-nitrobenzoic acid (2-quinolinylmethylene)hydrazide] | 0% | 39.5% | 
COC(=O)NN=Cc1ccnc2ccccc12 [Compound 25, methyl (4-quinolinylmethylene)carbazate] |  | 3.4% | 
O=C(NN=Cc1ccnc2ccccc12)c1ccc(C(F)(F)F)cc1 [Compound 26, 4-trifluoromethylbenzoic acid (4-quinolinylmethylene)hydrazide] | 29% | 40.2% | 
O=C(NN=Cc1ccnc2ccccc12)C1CCC1 [Compound 29, cyclobutanecarboxylic acid (4-quinolinylmethylene)hydrazide] | 88.4% | 99.8% | 
CCC(=O)NN=Cc1cnc2ccccc2c1 [Compound 39] |  | 96.4% | 
O=C(NN=Cc1cnc2ccccc2c1)C1CCCCC1 [Compound 41] |  | 98.2% | 
CC(=O)NN=Cc1cnc2ccccc2c1 [Compound 43] |  | 85.4% | 
